Broadly, the Ki is a dissociation constant, usually derived from enzyme kinetics or from competition with a known ligand.

Each structure is given as a SMILES string.

The target of assay [1] is T1, Carbonic anhydrase 2 (Homo sapiens, UniProt P00918). Put plainly: ChEBML_1523541. Conditions: 25 °C. How it is done:
(§1) Inhibition of human recombinant carbonic anhydrase 2 preincubated for 15 mins at room temperature/6 hrs at 4 deg C by stopped-flow CO2 hydration assay

In assay [2] the target is T2, Carbonic anhydrase 1 (Homo sapiens, UniProt P00915). Kind of assay: ChEBML_1523540. Conditions: 25 °C. How it is done: Inhibition of human recombinant carbonic anhydrase 1 preincubated for 15 mins at room temperature/6 hrs at 4 deg C by stopped-flow CO2 hydration assay
In assay [3] the target is T3, Carbonic anhydrase 12 (Homo sapiens, UniProt O43570). Put plainly: ChEBML_1523544. Conditions: 25 °C. How it is done: (§2) Inhibition of human recombinant carbonic anhydrase 12 preincubated for 15 mins at room temperature/6 hrs at 4 deg C by stopped-flow CO2 hydration assay
The target of assay [4] is T2, Carbonic anhydrase 1. Kind of assay: Inhibition of human recombinant carbonic anhydrase 1.
The target in assay [5] is T3, Carbonic anhydrase 12. The description is as §2. As to conditions: 25 °C.
For assay [6], the target named is T1, Carbonic anhydrase 2. Described as §1. Conditions: 25 °C.

T3 sequence (O43570 whole entry): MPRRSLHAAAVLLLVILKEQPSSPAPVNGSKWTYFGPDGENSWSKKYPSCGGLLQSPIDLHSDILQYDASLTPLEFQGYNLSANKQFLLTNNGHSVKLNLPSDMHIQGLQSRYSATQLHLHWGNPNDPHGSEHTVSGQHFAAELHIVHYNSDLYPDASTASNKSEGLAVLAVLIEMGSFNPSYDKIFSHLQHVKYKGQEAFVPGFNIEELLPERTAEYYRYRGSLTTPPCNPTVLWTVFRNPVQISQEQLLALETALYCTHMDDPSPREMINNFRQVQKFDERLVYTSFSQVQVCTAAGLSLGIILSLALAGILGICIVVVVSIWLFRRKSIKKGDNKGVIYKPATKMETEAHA
T2 sequence (P00915 whole entry): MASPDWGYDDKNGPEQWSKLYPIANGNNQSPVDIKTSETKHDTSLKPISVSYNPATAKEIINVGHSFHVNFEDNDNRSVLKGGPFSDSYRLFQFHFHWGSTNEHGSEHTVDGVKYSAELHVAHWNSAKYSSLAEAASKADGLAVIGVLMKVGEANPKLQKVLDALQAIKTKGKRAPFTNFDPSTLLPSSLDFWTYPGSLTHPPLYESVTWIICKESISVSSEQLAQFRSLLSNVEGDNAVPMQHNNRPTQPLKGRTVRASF

Regarding `O=c1cc(O)cc2oc(-c3ccc(O)c(O)c3)c(O[C@@H]3O[C@H](CO)[C@@H](O)[C@H](O)[C@H]3O)c(O)c1-2` [Quercetin 3-O-beta-D-glucoside], the Ki at Carbonic anhydrase 2 [1] was 6.21 µM; on Carbonic anhydrase 1 [2], over 10 µM; on Carbonic anhydrase 12 [3], 0.0521 µM; on Carbonic anhydrase 1 [4] it was over 10 µM; on Carbonic anhydrase 12 [5], 0.052 µM; on Carbonic anhydrase 2 [6], 6.21 µM.

For the origin of these results see BindingDB's records for doi:10.1016/j.bmc.2015.10.018 (Aristotle University of Thessaloniki, 2015).
